Measured values published in patent US8877715B2, “Cytotoxic conjugates having neuropeptide Y receptor binding compound” (priority 2009, dated 2014).

System: Human MCF-7 breast carcinoma cells
Test: In vivo growth assay, MCF-7 xenograft (Study A and Study B)
Design: species or system nude mice
Conditions: for TGI: Day 15
Description: Once-weekly treatments were administered for three weeks by tail vein injection except in cases where poor drug solubility or tail necrosis necessitated intraperitoneal injections. […] Example 93 was evaluated in Study B at 55.45 mg/kg, 110.9 mg/kg and 221.8 mg/kg. Antitumor activity was assessed by tumor growth delay (“TGD”) defined as the difference in median time to endpoint tumor size in a treatment group compared to the control group, and by tumor growth inhibition (“TGI”) defined as the difference between median tumor volumes of the treatment and control groups on a study day providing a balance between measurable group responses and large group sizes. Toxicity was evaluated by body weight measurements and clinical observations.
Female nude mice (nu/nu, Harlan) were 10-11 weeks old and had body weight ranges of
The animals were fed ad libitum water (reverse osmosis, 1 ppm Cl) and NIH 31 Modified and Irradiated Lab Diet® consisting of 18.0% crude protein, 5.0% crude fat, and 5.0% crude fiber. The mice were housed on irradiated ALPHA-Dri® Bed-o′ Cobs® Laboratory Animal Bedding in static microisolators on a 12-hour light cycle at 21-22° C.
Human MCF-7 breast carcinoma cells were maintained in RPMI 1640 medium containing 100 units/mL penicillin G sodium, 100 μg/mL streptomycin sulfate, and 25 μg/mL gentamicin. The medium was supplemented with 10% heat-inactivated fetal bovine serum and 2 mM glutamine. Additional buffering was provided with 10 mM HEPES and 0.075% sodium bicarbonate. The tumor cells were cultured in tissue culture flasks in a humidified incubator at 37° C. in an atmosphere of 95% air and 5% CO2.
Three to seven days prior to cell injection, a pellet containing 17-β-estradiol (0.36 mg, 60-day release, Innovative Research of America) was implanted subcutaneously between the scapulae of each mouse.
The MCF-7 tumor cells used for implantation were harvested during log phase growth and resuspended in phosphate-buffered saline at 5×10^7 cells/mL. […] Tumors were monitored twice weekly and then daily as their volumes approached 80-120 mm^3. […] Thus, a separate study (“Study B”) was set up comprising six groups (n=10) of animals. In this study, 17 days elapsed between cell implantation and group assignment. […] Tumor size, in mm^3, was calculated from:
[formula] where w=width and l=length in mm of the MCF-7 tumor. Tumor weight may be estimated with the assumption that 1 mg is equivalent to 1 mm^3 of tumor volume.
Example 93 dosing solutions were prepared fresh in 0.1N acetic acid for each day of treatment.
Camptothecin (Lot No. 034K3648, Sigma) stock solutions were made from 60% DMA and 40% Tween 80 and stored at room temperature during the study. Dosing solutions were prepared fresh on each day of dosing by diluting the stocks 1:20 in saline.
The treatment plans are summarized in Table 3A for Study A and Table 3B for Study B.
All treatments and vehicles were given once-weekly for three doses (“qwk×3”). Group 1 mice received no gavage and no injections, and served as a control for tumor progression and estrogen toxicity. Group 2 animals received vehicle.
Each treatment dose was administered in a volume of 0.2 mL per 20 g of body weight, and was scaled to the body weight of the animal.
Median tumor growth curves of FIGS. 1-3 show median tumor volumes as a function of time. When an animal exited the study due to tumor size, the final tumor volume recorded for the animal was included with the data used to calculate the group median tumor volume at subsequent time points. Curves were truncated after 50% of animals in a group had exited the study.

In the case of “[camptothecin-rvD-Asp-Suc-Tyr^1, Nle^17, 4Hyp^34]hNPY(1-36)-NH2 [Example 92]”, the “tumor growth inhibition (TGI)” value (Study A, Day 18) was “dose-related, significantly so at 110.6 and 221.2 mg/kg, and of potential therapeutic value at the higher dose level”, the mean tumor volume (Study A, G 7: 55.3 mg/kg qwk x 3, D 1) was 124.1 mm^3 and the mean tumor volume (Study A, G 7: 55.3 mg/kg qwk x 3, D 4) was 112.3 mm^3. The mean tumor volume (Study A, G 7: 55.3 mg/kg qwk x 3, D 7) was 139.2 mm^3, the mean tumor volume (Study A, G 7: 55.3 mg/kg qwk x 3, D 11) was 168.4 mm^3 and the mean tumor volume (Study A, G 7: 55.3 mg/kg qwk x 3, D 14) was 250.9 mm^3. For the same substance, the mean tumor volume (Study A, G 7: 55.3 mg/kg qwk x 3, D 18) was 242.9 mm^3, the mean tumor volume (Study A, G 7: 55.3 mg/kg qwk x 3, D 21) was 262.5 mm^3 and the mean tumor volume (Study A, G 7: 55.3 mg/kg qwk x 3, D 25) was 385.9 mm^3. For the same substance, the mean tumor volume (Study A, G 7: 55.3 mg/kg qwk x 3, D 28) was 505.1 mm^3, the mean tumor volume (Study A, G 7: 55.3 mg/kg qwk x 3, D 32) was 532.2 mm^3 and the mean tumor volume (Study A, G 7: 55.3 mg/kg qwk x 3, D 35) was 631 mm^3. The mean tumor volume (Study A, G 7: 55.3 mg/kg qwk x 3, D 39) was 978 mm^3, the mean tumor volume (Study A, G 8: 110.6 mg/kg qwk x 3, D 1) was 124.1 mm^3 and the mean tumor volume (Study A, G 8: 110.6 mg/kg qwk x 3, D 4) was 130.8 mm^3. The mean tumor volume (Study A, G 8: 110.6 mg/kg qwk x 3, D 7) was 127.5 mm^3, the mean tumor volume (Study A, G 8: 110.6 mg/kg qwk x 3, D 11) was 146 mm^3 and the mean tumor volume (Study A, G 8: 110.6 mg/kg qwk x 3, D 14) was 184.6 mm^3. The mean tumor volume (Study A, G 8: 110.6 mg/kg qwk x 3, D 18) was 187.9 mm^3, the mean tumor volume (Study A, G 8: 110.6 mg/kg qwk x 3, D 21) was 216.2 mm^3 and the mean tumor volume (Study A, G 8: 110.6 mg/kg qwk x 3, D 25) was 337.3 mm^3. For the same substance, the mean tumor volume (Study A, G 8: 110.6 mg/kg qwk x 3, D 28) was 439.6 mm^3, the mean tumor volume (Study A, G 8: 110.6 mg/kg qwk x 3, D 32) was 454.8 mm^3 and the mean tumor volume (Study A, G 8: 110.6 mg/kg qwk x 3, D 35) was 550.5 mm^3. The mean tumor volume (Study A, G 8: 110.6 mg/kg qwk x 3, D 39) was 938 mm^3, the mean tumor volume (Study A, G 9: 221.2 mg/kg qwk x 3, D 1) was 124.1 mm^3 and the mean tumor volume (Study A, G 9: 221.2 mg/kg qwk x 3, D 4) was 118.3 mm^3. It also gave a mean tumor volume (Study A, G 9: 221.2 mg/kg qwk x 3, D 7) of 118.9 mm^3, a mean tumor volume (Study A, G 9: 221.2 mg/kg qwk x 3, D 11) of 118.8 mm^3 and a mean tumor volume (Study A, G 9: 221.2 mg/kg qwk x 3, D 14) of 109.4 mm^3. For the same substance, the mean tumor volume (Study A, G 9: 221.2 mg/kg qwk x 3, D 18) was 129.5 mm^3, the mean tumor volume (Study A, G 9: 221.2 mg/kg qwk x 3, D 21) was 150.1 mm^3 and the mean tumor volume (Study A, G 9: 221.2 mg/kg qwk x 3, D 25) was 172.2 mm^3. For the same substance, the mean tumor volume (Study A, G 9: 221.2 mg/kg qwk x 3, D 28) was 197.7 mm^3, the mean tumor volume (Study A, G 9: 221.2 mg/kg qwk x 3, D 32) was 213.8 mm^3 and the mean tumor volume (Study A, G 9: 221.2 mg/kg qwk x 3, D 35) was 301.7 mm^3. For the same substance, the mean tumor volume (Study A, G 9: 221.2 mg/kg qwk x 3, D 39) was 372 mm^3, the tumor regressions (Study A, highest dose level (222.6 or 221.2 mg/kg), TGD-evaluated sample) was 3/5 and the “tumor growth delay (TGD)” value (Study A, three dose levels, qwk x 3) was “dose-related TGD, reaching statistical significance”.
For “[camptothecin-rvD-Asp-Suc-Tyr^1, Nle^17, A6c^31, 4Hyp^34]hNPY(1-36)-NH2 [Example 93]”, the “tumor growth delay (TGD)” value (Study B) was “TGD analysis did not distinguish responses to Example 93 from tumor growth in the untreated control”, the TGI (Study B, 110.9 mg/kg) was 71% and the TGI (Study B, 221.8 mg/kg) was 77%. It also gave a mean tumor volume (Study B, G 4: 55.45 mg/kg qwk x 3, D 1) of 112.9 mm^3, a mean tumor volume (Study B, G 4: 55.45 mg/kg qwk x 3, D 4) of 206.3 mm^3 and a mean tumor volume (Study B, G 4: 55.45 mg/kg qwk x 3, D 8) of 227.6 mm^3. It also gave a mean tumor volume (Study B, G 4: 55.45 mg/kg qwk x 3, D 12) of 236.1 mm^3, a mean tumor volume (Study B, G 4: 55.45 mg/kg qwk x 3, D 15) of 323.1 mm^3 and a mean tumor volume (Study B, G 4: 55.45 mg/kg qwk x 3, D 19) of 348.4 mm^3. The mean tumor volume (Study B, G 4: 55.45 mg/kg qwk x 3, D 22) was 343.3 mm^3, the mean tumor volume (Study B, G 4: 55.45 mg/kg qwk x 3, D 26) was 366.9 mm^3 and the mean tumor volume (Study B, G 4: 55.45 mg/kg qwk x 3, D 29) was 426.8 mm^3. It also gave a mean tumor volume (Study B, G 4: 55.45 mg/kg qwk x 3, D 33) of 524.5 mm^3, a mean tumor volume (Study B, G 4: 55.45 mg/kg qwk x 3, D 36) of 621.9 mm^3 and a mean tumor volume (Study B, G 4: 55.45 mg/kg qwk x 3, D 40) of 452.8 mm^3. For the same substance, the mean tumor volume (Study B, G 5: 110.9 mg/kg qwk x 3, D 1) was 112.8 mm^3, the mean tumor volume (Study B, G 5: 110.9 mg/kg qwk x 3, D 4) was 217.3 mm^3 and the mean tumor volume (Study B, G 5: 110.9 mg/kg qwk x 3, D 8) was 213 mm^3. It also gave a mean tumor volume (Study B, G 5: 110.9 mg/kg qwk x 3, D 12) of 186.6 mm^3, a mean tumor volume (Study B, G 5: 110.9 mg/kg qwk x 3, D 15) of 242.5 mm^3 and a mean tumor volume (Study B, G 5: 110.9 mg/kg qwk x 3, D 19) of 212.6 mm^3. The mean tumor volume (Study B, G 5: 110.9 mg/kg qwk x 3, D 22) was 207.7 mm^3, the mean tumor volume (Study B, G 5: 110.9 mg/kg qwk x 3, D 26) was 225.5 mm^3 and the mean tumor volume (Study B, G 5: 110.9 mg/kg qwk x 3, D 29) was 308.7 mm^3. For the same substance, the mean tumor volume (Study B, G 5: 110.9 mg/kg qwk x 3, D 33) was 112.3 mm^3, the mean tumor volume (Study B, G 5: 110.9 mg/kg qwk x 3, D 36) was 141.1 mm^3 and the mean tumor volume (Study B, G 5: 110.9 mg/kg qwk x 3, D 40) was 229.5 mm^3. The mean tumor volume (Study B, G 6: 221.8 mg/kg qwk x 3, D 1) was 112.7 mm^3, the mean tumor volume (Study B, G 6: 221.8 mg/kg qwk x 3, D 4) was 197.9 mm^3 and the mean tumor volume (Study B, G 6: 221.8 mg/kg qwk x 3, D 8) was 170.3 mm^3. It also gave a mean tumor volume (Study B, G 6: 221.8 mg/kg qwk x 3, D 12) of 108 mm^3, a mean tumor volume (Study B, G 6: 221.8 mg/kg qwk x 3, D 15) of 122.8 mm^3 and a mean tumor volume (Study B, G 6: 221.8 mg/kg qwk x 3, D 19) of 66.6 mm^3. The mean tumor volume (Study B, G 6: 221.8 mg/kg qwk x 3, D 22) was 66 mm^3, the mean tumor volume (Study B, G 6: 221.8 mg/kg qwk x 3, D 26) was 80.4 mm^3 and the mean tumor volume (Study B, G 6: 221.8 mg/kg qwk x 3, D 29) was 90.1 mm^3. For the same substance, the mean tumor volume (Study B, G 6: 221.8 mg/kg qwk x 3, D 33) was 109.6 mm^3, the mean tumor volume (Study B, G 6: 221.8 mg/kg qwk x 3, D 36) was 123.8 mm^3 and the mean tumor volume (Study B, G 6: 221.8 mg/kg qwk x 3, D 40) was 233.2 mm^3. For the same substance, the tumor growth curves (Study B, all dose levels) was “clear reduction in tumor growth at all dose levels”.
